What was measured:
TAMs in tumor tissue = assay: M2 polarization of TAMs in tumor tissue, flow cytometry; assay type: in vivo, C57 mice; conditions: 10 mg/kg, intraperitoneal
[1] = Body and organ weights, organ H&E in the antitumor experiment; assay type: in vivo, C57 mice; conditions: 100 mg/kg, intraperitoneal

| spleen weight [1] | SMILES | percentage of M2 polarization in TAMs (TAMs in tumor tissue) [%] | liver H&E finding [1] |
| --- | --- | --- | --- |
|  | C[C@H](NC(=O)c1c(N)nn2cccnc12)c1cc2cccc(C#Cc3cnn(C)c3)c2c(=O)n1-c1ccccc1 [IPI-549] | 15.40 |  |
| significant decrease | CN(C)/N=N/c1[nH]cnc1C(N)=O [dacarbazine] |  | coagulative necrosis |
